According to patent US20250313533A1, “QUINOLINE CARBOXYLIC ACID ESTER COMPOUND AND PREPARATION METHOD AND USE THEREOF” (priority 2019, published 2025):

Experiments:
[1] = system: pathogenic bacteria causing bacterial angular leaf spot in cucumbers; test: In vitro bactericidal activity, bacterial angular leaf spot in cucumbers; assay type: cell-based, pseudomonas; settings: read-out: inhibitory rate; for inhibition at 1 ppm: dosage 1 ppm; for inhibition at 5 ppm: dosage 5 ppm
[2] = system: pathogenic bacteria causing bacterial wilt in tobacco; test: whole plant or invertebrate; assay type: cell-based, ralstonia; settings: read-out: inhibitory rate
[3] = system: pathogenic bacteria causing black shank in potatoes; test: In vitro bactericidal activity, black shank in potatoes; assay type: cell-based; settings: read-out: inhibitory rate; for inhibition at 1 ppm: dosage 1 ppm; for inhibition at 5 ppm: dosage 5 ppm
[4] = system: pathogenic bacteria causing stem rot in sweet potatoes; test: In vitro bactericidal activity, stem rot in sweet potatoes; assay type: cell-based, dikia; settings: read-out: inhibitory rate; for inhibition at 1 ppm: dosage 1 ppm; for inhibition at 5 ppm: dosage 5 ppm
[5] = system: pathogenic bacteria causing bacterial blight in rice; test: whole plant or invertebrate; assay type: cell-based, xanthomonas; settings: read-out: inhibitory rate
[6] = system: pathogenic bacteria causing fruit blotch in watermelons; test: In vitro bactericidal activity, fruit blotch in watermelons; assay type: cell-based, acidovorax; settings: read-out: inhibitory rate; for inhibition at 1 ppm: dosage 1 ppm; for inhibition at 5 ppm: dosage 5 ppm
[7] = system: pathogenic bacteria causing black rot in Chinese cabbages; test: In vitro bactericidal activity, black rot in Chinese cabbages; assay type: cell-based, xanthomonas; settings: Xanthomonas, read-out: inhibitory rate; for inhibition at 1 ppm: dosage 1 ppm; for inhibition at 5 ppm: dosage 5 ppm
[8] = system: pathogenic bacteria causing bacterial wilt in cassava; test: organism not typed; assay type: cell-based; settings: read-out: inhibitory rate
[9] = system: pathogenic bacteria causing fire blight in pears; test: In vitro bactericidal activity, fire blight in pears; assay type: cell-based, erwinia; settings: Erwinia, read-out: inhibitory rate; for inhibition at 1 ppm: dosage 1 ppm; for inhibition at 5 ppm: dosage 5 ppm
black shank in potatoes = test: Living crops in vivo protective activity, potatoes (root irrigation); settings: Solanum tuberosum, read-out: efficacy against black shank in potatoes; for pest or weed control at 5 ppm: dosage 5 ppm; for pest or weed control at 10 ppm: dosage 10 ppm
Description: Root irrigation was carried out on the potatoes for tests according to the designed concentration of the agents. The dosage for each plant was 200 mL and was kept consistent (also for the control). The black shank bacteria were inoculated on the second day after the application. The results were investigated according to the disease condition.

[10] = system: indoor potted cucumber seedlings; test: Effect of improving growth and development of crops; assay type: in vivo; set-up: Rate of growth rate increase (%): concentration or dose not given beside the values; settings: versus blank control; for Rate of chlorophyll content increase (%) / Rate of leaf area increase (%): 14 days after application; for Rate of growth rate increase (%): plant height 14 days after application; for Rate of leaf area increase (%): second leaf
Procedure, shortened: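 Plant height and second-leaf length/width were measured before application and 14 days after; growth rate and its percent increase, leaf area and leaf-area increase were calculated from these. Chlorophyll was read with a SPAD chlorophyll meter and its increase rate derived.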

cucumber seedlings = test: Safety for plant growth after application; assay type: in vivo; settings: dosage 200 ppm
Procedure, shortened: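 Potted cucumber seedlings grown indoors; read-outs: plant-height growth rate, chlorophyll content, leaf area.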

[11] = system: bacterial wilt in tobacco; test: whole plant or invertebrate; settings: Nicotiana tabacum, read-out: efficacy against bacterial wilt in tobacco
[12] = system: stem rot in sweet potatoes; test: whole plant or invertebrate; settings: read-out: efficacy against stem rot in sweet potatoes
bacterial blight in rice = test: whole plant or invertebrate; settings: Oryza sativa, read-out: efficacy against bacterial blight in rice
[13] = system: fruit blotch in watermelons; test: whole plant or invertebrate; settings: read-out: efficacy against fruit blotch in watermelons
[14] = system: soft rot in Chinese cabbages; test: whole plant or invertebrate; settings: 48 h, read-out: efficacy against soft rot in Chinese cabbages

Row | SMILES | inhibition at 1 ppm [1] [%] | inhibition at 5 ppm [1] [%] | inhibition at 1 ppm [2] [%] | inhibition at 5 ppm [2] [%] | inhibition at 1 ppm [3] [%] | inhibition at 5 ppm [3] [%] | inhibition at 1 ppm [4] [%] | inhibition at 5 ppm [4] [%] | inhibition at 1 ppm [5] [%] | inhibition at 5 ppm [5] [%] | inhibition at 1 ppm [6] [%] | inhibition at 5 ppm [6] [%] | inhibition at 1 ppm [7] [%] | inhibition at 5 ppm [7] [%] | inhibition at 1 ppm [8] [%] | inhibition at 5 ppm [8] [%] | inhibition at 1 ppm [9] [%] | inhibition at 5 ppm [9] [%] | pest or weed control at 5 ppm (black shank in potatoes) [%] | pest or weed control at 10 ppm (black shank in potatoes) [%] | other results
1 | COCCOC(=O)c1cn(C2CC2)c2cc(OC3CCCC3)c(F)cc2c1=O [Compound 296] | ≥ 90 | ≥ 90 | ≥ 90 | ≥ 90 | ≥ 90 | ≥ 90 | ≥ 90 | ≥ 90 | ≥ 90 | ≥ 90 | ≥ 90 | ≥ 90 | ≥ 90 | ≥ 90 | ≥ 90 | ≥ 90 | ≥ 90 | ≥ 90 | ≥ 90 | ≥ 90 | Rate of chlorophyll content increase (%) [10]: 16%; Rate of growth rate increase (%) [10]: 12%; Rate of leaf area increase (%) [10]: 11%; safety for plant growth (discoloration, necrosis, wilt, malformation) (cucumber seedlings): safe for plant growth; pest or weed control at 5 ppm [11]: ≥ 90%; pest or weed control at 10 ppm [11]: ≥ 90%; pest or weed control at 5 ppm [12]: ≥ 90%; pest or weed control at 10 ppm [12]: ≥ 90%; pest or weed control at 5 ppm (bacterial blight in rice): ≥ 90%; pest or weed control at 10 ppm (bacterial blight in rice): ≥ 90%; pest or weed control at 5 ppm [13]: ≥ 90%; pest or weed control at 10 ppm [13]: ≥ 90%; pest or weed control at 5 ppm [14]: ≥ 90%; pest or weed control at 10 ppm [14]: ≥ 90%
2 | CCOc1cc2c(cc1F)c(=O)c(C(=O)OCCOC1CCCC1)cn2C1CC1 [Compound 307] | ≥ 90 | ≥ 90 | ≥ 90 | ≥ 90 | ≥ 90 | ≥ 90 | ≥ 90 | ≥ 90 | ≥ 90 | ≥ 90 | ≥ 90 | ≥ 90 | ≥ 90 | ≥ 90 | ≥ 90 | ≥ 90 | ≥ 90 | ≥ 90 | ≥ 90 | ≥ 90 | Rate of chlorophyll content increase (%) [10]: 11%; Rate of growth rate increase (%) [10]: 9%; Rate of leaf area increase (%) [10]: 12%; safety for plant growth (discoloration, necrosis, wilt, malformation) (cucumber seedlings): safe for plant growth; pest or weed control at 5 ppm [11]: ≥ 90%; pest or weed control at 10 ppm [11]: ≥ 90%; pest or weed control at 5 ppm [12]: ≥ 90%; pest or weed control at 10 ppm [12]: ≥ 90%; pest or weed control at 5 ppm (bacterial blight in rice): ≥ 90%; pest or weed control at 10 ppm (bacterial blight in rice): ≥ 90%; pest or weed control at 5 ppm [13]: ≥ 90%; pest or weed control at 10 ppm [13]: ≥ 90%; pest or weed control at 5 ppm [14]: ≥ 90%; pest or weed control at 10 ppm [14]: ≥ 90%
3 | CCOc1cc2c(cc1F)c(=O)c(C(=O)OCCCO)cn2C1CC1 [Compound 309] | ≥ 90 | ≥ 90 | ≥ 90 | ≥ 90 | ≥ 90 | ≥ 90 | ≥ 90 | ≥ 90 | ≥ 90 | ≥ 90 | ≥ 90 | ≥ 90 | ≥ 90 | ≥ 90 | ≥ 90 | ≥ 90 | ≥ 90 | ≥ 90 | ≥ 90 | ≥ 90 | Rate of chlorophyll content increase (%) [10]: 16%; Rate of growth rate increase (%) [10]: 12%; Rate of leaf area increase (%) [10]: 15%; safety for plant growth (discoloration, necrosis, wilt, malformation) (cucumber seedlings): safe for plant growth; pest or weed control at 5 ppm [11]: ≥ 90%; pest or weed control at 10 ppm [11]: ≥ 90%; pest or weed control at 5 ppm [12]: ≥ 90%; pest or weed control at 10 ppm [12]: ≥ 90%; pest or weed control at 5 ppm (bacterial blight in rice): ≥ 90%; pest or weed control at 10 ppm (bacterial blight in rice): ≥ 90%; pest or weed control at 5 ppm [13]: ≥ 90%; pest or weed control at 10 ppm [13]: ≥ 90%; pest or weed control at 5 ppm [14]: ≥ 90%; pest or weed control at 10 ppm [14]: ≥ 90%
4 | CCOc1cc2c(cc1F)c(=O)c(C(=O)OCCCOC)cn2C1CC1 [Compound 315] | ≥ 90 | ≥ 90 | ≥ 90 | ≥ 90 | ≥ 90 | ≥ 90 | ≥ 90 | ≥ 90 | ≥ 90 | ≥ 90 | ≥ 90 | ≥ 90 | ≥ 90 | ≥ 90 | ≥ 90 | ≥ 90 | ≥ 90 | ≥ 90 | ≥ 90 | ≥ 90 | Rate of chlorophyll content increase (%) [10]: 12%; Rate of growth rate increase (%) [10]: 9%; Rate of leaf area increase (%) [10]: 11%; safety for plant growth (discoloration, necrosis, wilt, malformation) (cucumber seedlings): safe for plant growth; pest or weed control at 5 ppm [11]: ≥ 90%; pest or weed control at 10 ppm [11]: ≥ 90%; pest or weed control at 5 ppm [12]: ≥ 90%; pest or weed control at 10 ppm [12]: ≥ 90%; pest or weed control at 5 ppm (bacterial blight in rice): ≥ 90%; pest or weed control at 10 ppm (bacterial blight in rice): ≥ 90%; pest or weed control at 5 ppm [13]: ≥ 90%; pest or weed control at 10 ppm [13]: ≥ 90%; pest or weed control at 5 ppm [14]: ≥ 90%; pest or weed control at 10 ppm [14]: ≥ 90%
5 | COc1cc2c(cc1F)c(=O)c(C(=O)OCCCO)cn2C1CC1 [Compound 320] | ≥ 90 | ≥ 90 | ≥ 90 | ≥ 90 | ≥ 90 | ≥ 90 | ≥ 90 | ≥ 90 | ≥ 90 | ≥ 90 | ≥ 90 | ≥ 90 | ≥ 90 | ≥ 90 | ≥ 90 | ≥ 90 | ≥ 90 | ≥ 90 | ≥ 90 | ≥ 90 | Rate of chlorophyll content increase (%) [10]: 16%; Rate of growth rate increase (%) [10]: 14%; Rate of leaf area increase (%) [10]: 9%; safety for plant growth (discoloration, necrosis, wilt, malformation) (cucumber seedlings): safe for plant growth; pest or weed control at 5 ppm [11]: ≥ 90%; pest or weed control at 10 ppm [11]: ≥ 90%; pest or weed control at 5 ppm [12]: ≥ 90%; pest or weed control at 10 ppm [12]: ≥ 90%; pest or weed control at 5 ppm (bacterial blight in rice): ≥ 90%; pest or weed control at 10 ppm (bacterial blight in rice): ≥ 90%; pest or weed control at 5 ppm [13]: ≥ 90%; pest or weed control at 10 ppm [13]: ≥ 90%; pest or weed control at 5 ppm [14]: ≥ 90%; pest or weed control at 10 ppm [14]: ≥ 90%
6 | COCCCOC(=O)c1cn(C2CC2)c2cc(OC)c(F)cc2c1=O [Compound 323] | ≥ 90 | ≥ 90 | ≥ 90 | ≥ 90 | ≥ 90 | ≥ 90 | ≥ 90 | ≥ 90 | ≥ 90 | ≥ 90 | ≥ 90 | ≥ 90 | ≥ 90 | ≥ 90 | ≥ 90 | ≥ 90 | ≥ 90 | ≥ 90 | ≥ 90 | ≥ 90 | Rate of chlorophyll content increase (%) [10]: 19%; Rate of growth rate increase (%) [10]: 13%; Rate of leaf area increase (%) [10]: 13%; safety for plant growth (discoloration, necrosis, wilt, malformation) (cucumber seedlings): safe for plant growth; pest or weed control at 5 ppm [11]: ≥ 90%; pest or weed control at 10 ppm [11]: ≥ 90%; pest or weed control at 5 ppm [12]: ≥ 90%; pest or weed control at 10 ppm [12]: ≥ 90%; pest or weed control at 5 ppm (bacterial blight in rice): ≥ 90%; pest or weed control at 10 ppm (bacterial blight in rice): ≥ 90%; pest or weed control at 5 ppm [13]: ≥ 90%; pest or weed control at 10 ppm [13]: ≥ 90%; pest or weed control at 5 ppm [14]: ≥ 90%; pest or weed control at 10 ppm [14]: ≥ 90%
